Measured values published in patent US8044066B2, “Derivatives of pyrrolopyridine-2-carboxamides, preparation thereof and therapeutic application thereof” (Sanofi-Aventis, priority 2007, dated 2011).

Tests used:
TRPV1 receptor = biological target: T1, TRPV1 receptor (Rattus norvegicus, UniProt O35433); test: Inhibition of the current induced with capsaicin on rat DRGs (whole-cell patch-clamp); format: cell-based; settings: DRG neuron; compound at 10 nM; capsaicin 1 μM; newborn rat DRG neurons
T1 construct: The neurons of the DRG naturally express the TRPV1 receptor; endogenous in cells; host or cells: primary culture of newborn rat dorsal root ganglion (DRG) neurons
Method: Test of Inhibition of the Current Induced with Capsaicin on Rat DRGs
Primary Culture of Rat Dorsal Root Ganglion (DRG) Cells:
The neurons of the DRG naturally express the TRPV1 receptor.
The primary cultures of newborn rat DRGs are prepared using 1-day-old rats. Briefly, after dissection, the ganglions are trypsinized and the cells dissociated by mechanical trituration. The cells are resuspended in an Eagle basal culture medium containing 10% fetal calf serum, 25 mM KCl, 2 mM glutamine, 100 μg/ml gentamicin and 50 ng/ml of NGF, and then deposited on glass slides coated with laminin (0.25×10^6 cells per slide), which are then placed in Corning 12-well dishes. The cells are incubated at 37° C. in a humidified atmosphere containing 5% CO2 and 95% air. […]
The measuring chambers (volume 800 μl) containing the cell preparation are placed on the platform of an inverted microscope (Olympus IMT2) equipped with Hoffman optics (Modulation Contrast, New York) and observed at a magnification of 400×. […] The overall currents (membrane potential set at −60 mV) are recorded with an Axopatch 1D amplifier (Axon Instruments, Foster city, Calif.), connected to a PC running the Pclamp8 software (Axon Instrument). The current plots are recorded on paper and simultaneously digitized (sampling frequency 15 to 25 Hz) and acquired on the hard drive of the PC. […]

T1 sequence (O35433 whole entry): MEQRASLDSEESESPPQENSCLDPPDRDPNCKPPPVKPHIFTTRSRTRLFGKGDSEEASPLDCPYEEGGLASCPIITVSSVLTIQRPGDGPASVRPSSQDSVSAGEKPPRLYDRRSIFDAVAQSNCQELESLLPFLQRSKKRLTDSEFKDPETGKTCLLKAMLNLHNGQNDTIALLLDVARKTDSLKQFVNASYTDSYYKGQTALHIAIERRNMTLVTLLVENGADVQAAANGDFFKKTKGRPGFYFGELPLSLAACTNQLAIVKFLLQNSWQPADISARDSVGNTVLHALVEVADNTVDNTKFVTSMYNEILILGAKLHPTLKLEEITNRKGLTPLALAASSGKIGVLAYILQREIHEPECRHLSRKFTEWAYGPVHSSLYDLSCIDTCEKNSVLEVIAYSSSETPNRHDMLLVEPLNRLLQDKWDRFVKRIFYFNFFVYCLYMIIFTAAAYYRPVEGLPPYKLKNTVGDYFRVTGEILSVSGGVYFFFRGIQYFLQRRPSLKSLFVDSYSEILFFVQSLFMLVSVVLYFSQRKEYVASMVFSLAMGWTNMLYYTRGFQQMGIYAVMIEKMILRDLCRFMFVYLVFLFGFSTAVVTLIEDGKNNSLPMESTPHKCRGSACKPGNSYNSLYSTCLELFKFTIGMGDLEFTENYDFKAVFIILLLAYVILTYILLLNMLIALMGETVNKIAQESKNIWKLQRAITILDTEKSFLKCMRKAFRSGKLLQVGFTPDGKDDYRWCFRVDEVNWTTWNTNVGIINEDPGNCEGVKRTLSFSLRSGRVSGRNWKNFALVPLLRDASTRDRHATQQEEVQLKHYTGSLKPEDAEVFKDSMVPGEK

Structure (SMILES) | melting point [°C] | inhibition at 0.01 µM (TRPV1 receptor) [%]
Cc1nc2cc(NC(=O)c3cc4cccnc4n3-c3ccncc3)ccc2s1 | 236 to 238 | 
Cc1nc2cc(NC(=O)c3cc4cc(F)cnc4n3Cc3ccncc3)ccc2s1 [Compound 1, N-(2-methylbenzothiazol-5-yl)-5-fluoro-1-[(4-pyridyl)methyl]-1H-pyrrolo[2,3-b]pyridine-2-carboxamide] |  | 50
